Laboratory results published in patent publication US20250084063A1 (Incyte Corporation, priority 2023, published 2025).

Legend:
[1] = target: T1, MRGPRX2 (Homo sapiens, UniProt Q96LB1); assay: MRGPRX2 FLIPR calcium mobilization assay; type: cell-based; design: host or cells: CHO-K1; settings: CHO-K1 cells stably expressing human MRGPRX2; Ca2+ release, agonist Cortistatin-14 at EC80
T1 sequence (Q96LB1 1-330): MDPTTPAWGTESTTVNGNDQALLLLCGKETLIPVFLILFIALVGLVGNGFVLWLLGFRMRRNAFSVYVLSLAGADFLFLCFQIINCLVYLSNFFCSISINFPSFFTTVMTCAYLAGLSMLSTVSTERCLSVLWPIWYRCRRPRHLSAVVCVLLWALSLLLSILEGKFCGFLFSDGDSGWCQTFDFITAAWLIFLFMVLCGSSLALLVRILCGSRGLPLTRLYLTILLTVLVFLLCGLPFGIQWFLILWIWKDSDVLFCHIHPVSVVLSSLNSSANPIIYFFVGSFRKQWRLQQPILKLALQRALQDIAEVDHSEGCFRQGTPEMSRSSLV
Procedure: Example A. MRGPRX2 FLIPR Calcium Mobilization Assay
Chinese hamster ovary (CHO-K1) cells stably expressing human MRGPRX2 were purchased from Genescript (Piscataway, NJ). The cells were maintained in culture medium (Ham's F-12K) containing 10% (v/v) FBS, 200 μg/mL Zeocin, 100 units/mL penicillin G and 100 μg/mL streptomycin (Life Technologies, Carlsbad, CA). For the assay, the cells were harvested and resuspended with culture medium without Zeocin before plating at 8000 cells per well in 20 μL in 384-well black clear bottom cell culture plates (VWR, Radnor, PA). After 24 h culture at 37° C. and 5% CO2, the cells were loaded with 20 μL/well of calcium dye (FLIPR Calcium 6 Assay Kit, Molecular Devices, San Jose, CA) diluted in loading buffer (1×Hank's Balanced Salt Solution (HBSS), 5 mM probenecid, 20 mM 4-(2-hydroxyethyl)-1-piperazineethanesulfonic acid (HEPES), pH 7.4, VWR, Radnor, PA) followed with 45 min incubation at 37° C. and 40 min at room temperature in the dark. Cells were then treated with the addition of 10 uL/well test compounds with a range of increasing concentrations diluted in the assay buffer (1×HBSS, 20 mM HEPES, pH 7.4, VWR, Radnor, PA) with FLIPR Penta (Molecular Devices. San Jose, CA) and incubated for 30 min. at room temperature. Ca^2+ release was measured with FLIPR Penta with 10 seconds basal fluorescence measurement, then 12.5 μL of 5× agonist Cortistatin-14 (Tocris, Minneapolis, MN) at final concentration corresponding to the EC80 were added followed with continued fluorescence signal monitoring for an additional 110 seconds. The base line adjusted (median of first 10s base line) max value of the Relative Fluorescence Unit (RFU) was plotted against compound concentrations. Wells with no compound were served as the positive controls, and wells with high concentration of reference antagonist were used as negative controls. IC50 curves were globally fitted with 3- or 4-parameter Hill equation in a Genedata Screener (Genedata Basel, Switzerland).

[2] = target: T1, MRGPRX2; assay: MRGPRX2 IP1 HTRF assay; type: cell-based; design: host or cells: CHO-K1; settings: CHO-K1 cells stably expressing human MRGPRX2; IP1 accumulation, agonist Cortistatin 14 1 μM
Description: Example B: MRGPRX2 IP1 HTRF Assay
This assay measures compound inhibition of myo-Inositol 1 phosphate (IP1) accumulation in CHO-K1 cells. Chinese hamster ovary (CHO-K1) cells stably expressing human MRGPRX2 were purchased from GenScript (Piscataway, NJ).
For the HTRF IP1 determination, an IP-One GqKit (Perkin Elmer Cisbio, Waltham, MA), which includes all reagents and buffers in this protocol, was used. The cells were maintained in culture medium (Ham's F-12K) containing 10% (v/v) FBS, and 200 μg/mL Zeocin. For the assay, the cells were harvested and resuspended in culture medium with 2% FBS and without Zeocin, then were passed through a 40 μm filter. Cells were added at 20000 cells in a 5 μL/well to a 384-well white small volume cell culture plate (Greiner VWR, Radnor, PA) which contained 50 nL/well of test compound serially diluted at a selected concentration range in DMSO. 5 μL/well of prepared 2× Stimulation Buffer2 was then added to plates and was incubated at 37° C. with 5% CO2 for 1 h. 5 μL/well of agonist Cortistatin 14 (Bio-TechneR&D Systems, Minneapolis, MN) in 1× Stimulation Buffer 2, for a 1 μM final concentration, was then added to plates and incubated at 37° C. with 5% CO2 for 1 h. 6 μL/well of 1:20 diluted Detection Reagent Mix (d2 and Cryptate) was added to the plates and incubated for 1 h in the dark. Plates were read on the PHERAstar microplate reader (BMG Labtech Cary, NC) to determine the HTRF ratio of the acceptor and donor emission signals. The IP1 concentrations were calculated from a standard curve following the IP-One GQ kit instructions. Wells with DMSO only and wells with high concentration of reference antagonist were used as controls for normalization. Compound IC50 curves were globally fitted with 3- or 4-parameter Hill equation in a Genedata Screener (Genedata Basel, Switzerland).

NC(=O)N1CCC(CNc2cc(C(F)(F)F)nc3ccc(Cl)cc23)(c2ccccc2)CC1 [Example 13, 4-(((6-Chloro-2-(trifluoromethyl)quinolin-4-yl)amino)methyl)-4-phenylpiperidine-1-carboxamide] was tested, and the IC50 [1] was 0.1 to 100 nM and the IC50 [2] was 0.1 to 100 nM.

CN1CCC(CNc2cc(C(F)(F)F)nc3ccc(Cl)cc23)(c2ccccc2)CC1 [Example 15, 6-Chloro-N-((1-methyl-4-phenylpiperidin-4-yl)methyl)-2-(trifluoromethyl)quinolin-4-amine] showed an IC50 [1] of 0.1 to 100 nM and an IC50 [2] of 0.1 to 100 nM.

With NS(=O)(=O)N1CC(CNc2cc(C(F)(F)F)nc3ccc(Cl)cc23)(c2ccc(Cl)cc2)C1 [Example 33, 3-(((6-Chloro-2-(trifluoromethyl)quinolin-4-yl)amino)methyl)-3-(4-chlorophenyl)azetidine-1-sulfonamide] the IC50 [1] was 0.1 to 100 nM and the IC50 [2] was 0.1 to 100 nM.

In the case of NS(=O)(=O)N1CC(CNc2cc(C(F)(F)F)nc3ccc(Cl)cc23)(c2ccc(F)c(F)c2)C1 [Example 34, 3-(((6-Chloro-2-(trifluoromethyl)quinolin-4-yl)amino)methyl)-3-(3,4-difluorophenyl)azetidine-1-sulfonamide], the IC50 [1] is reported as 0.1 to 100 nM and the IC50 [2] is reported as 0.1 to 100 nM.

NS(=O)(=O)N1CC(CNc2cc(C(F)(F)F)nc3ccc(Cl)cc23)(c2ccnc(Cl)c2)C1 [Example 35, 3-(((6-Chloro-2-(trifluoromethyl)quinolin-4-yl)amino)methyl)-3-(2-chloropyridin-4-yl)azetidine-1-sulfonamide] gave an IC50 [1] of 0.1 to 100 nM and an IC50 [2] of 0.1 to 100 nM.

NS(=O)(=O)N1CC(CNc2cc(C(F)(F)F)nc3ccc(Cl)cc23)(n2cc(Cl)cn2)C1 [Example 36, 3-(4-Chloro-1H-pyrazol-1-yl)-3-(((6-chloro-2-(trifluoromethyl)quinolin-4-yl)amino)methyl)azetidine-1-sulfonamide] showed an IC50 [1] of 0.1 to 100 nM and an IC50 [2] of 0.1 to 100 nM.

Work on NC(=O)N1CC(CNc2cc(C(F)(F)F)nc3ccc(Cl)cc23)(c2ccc(F)cc2)C1 [Example 39, 3-(((6-Chloro-2-(trifluoromethyl)quinolin-4-yl)amino)methyl)-3-(4-fluorophenyl)azetidine-1-carboxamide] yielded an IC50 [1] of 0.1 to 100 nM and an IC50 [2] of 0.1 to 100 nM.

NC(=O)N1CC(CNc2cc(C(F)(F)F)nc3ccc(Cl)cc23)(c2ccccc2)C1 [Example 40, 3-(((6-Chloro-2-(trifluoromethyl)quinolin-4-yl)amino)methyl)-3-phenylazetidine-1-carboxamide] gave an IC50 [1] of 0.1 to 100 nM and an IC50 [2] of 0.1 to 100 nM.

NC(=O)N1CC(CNc2cc(C(F)(F)F)nc3ccc(Cl)cc23)(c2ccnc(Cl)c2)C1 [Example 42, 3-(((6-Chloro-2-(trifluoromethyl)quinolin-4-yl)amino)methyl)-3-(2-chloropyridin-4-yl)azetidine-1-carboxamide] was tested, and the IC50 [1] was 0.1 to 100 nM and the IC50 [2] was 0.1 to 100 nM.

For CNC(=O)N1CC(CNc2cc(C(F)(F)F)nc3ccc(Cl)cc23)(c2ccccc2)C1 [Example 48, 3-(((6-Chloro-2-(trifluoromethyl)quinolin-4-yl)amino)methyl)-N-methyl-3-phenylazetidine-1-carboxamide], the IC50 [1] was 0.1 to 100 nM and the IC50 [2] was 0.1 to 100 nM.

Work on NC(=O)N1CC(CNc2cc(C(F)(F)F)nc3cc(Cl)ccc23)(c2ccc(F)cn2)C1 [Example 57, 3-(((7-Chloro-2-(trifluoromethyl)quinolin-4-yl)amino)methyl)-3-(5-fluoropyridin-2-yl)azetidine-1-carboxamide] yielded an IC50 [1] of 0.1 to 100 nM.

N#Cc1cccc2c(NCC3(c4ccc(F)cn4)CN(C(N)=O)C3)cc(C(F)(F)F)nc12 [Example 64, 3-(((8-Cyano-2-(trifluoromethyl)quinolin-4-yl)amino)methyl)-3-(5-fluoropyridin-2-yl)azetidine-1-carboxamide] showed an IC50 [1] of over 1000 nM.

In the case of Cc1cc(C)n(C2(CNc3cc(C(F)(F)F)nc4ccc(Cl)cc34)CN(C(N)=O)C2)n1 [Example 105, 3-(((6-Chloro-2-(trifluoromethyl)quinolin-4-yl)amino)methyl)-3-(3,5-dimethyl-1H-pyrazol-1-yl)azetidine-1-carboxamide], the IC50 [2] is reported as 100 to 1000 nM.
